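Following 48 hours of exposure in 96-well plates, responses at five concentrations were used to interpolate endpoints linearly. GI50: concentration for 50% inhibition of growth. At the TGI there is no net growth.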

Holding throughout (assay): DTP human tumour cell line panel, 48 h
Experiment [1] concerns HOP-62 NSCLC.
The test system of experiment [2] is K-562 leukemia.
Experiment [3] concerns M14 melanoma.
The test system of experiment [4] is MCF7 breast.
For experiment [5], the system named is NCI-H226 lung.
Experiment [6] has as its system NCI/ADR-RES ovarian.
The test system of experiment [7] is SW-620 colon.
Experiment [8] deals with T-47D breast.
Experiment [9] has as its system TK-10 renal.
Experiment [10] has as its system U251 CNS.

For the compound `O=C(O)CC(CC(=O)O)n1cccc1`, the total growth inhibition concentration (TGI) in experiment [1], in [2], in experiment [3], in [4], in experiment [5] and in experiment [6] was above 100 µM in each case. Also, the TGI in [7], in experiment [8], in experiment [9] and in [10] was above 100 µM throughout.

With `Nc1ccccc1SC(CC(=O)c1ccccc1)c1c(Cl)cccc1Cl` (stereo not drawn), the GI50 in [1] is 6.82 µM; in experiment [2], 2.76 µM; in experiment [3] it was 3.25 µM; in [4], 1.25 µM; in experiment [5] it was 14.9 µM; in experiment [6] it was 3.72 µM. For the same compound, the GI50 in experiment [7] was 2.28 µM; in experiment [8] it was 2.81 µM; in [9] it was 4.71 µM; in experiment [10], 4.24 µM. Besides, the TGI amounted to 27.7 µM in [1]; 7.69 µM in [2]; 12.9 µM in [3]; 13.1 µM in experiment [4]; 40.6 µM in experiment [5]; 28.5 µM in experiment [6]. For the same compound, the TGI was 5.21 µM in experiment [7], 13.4 µM in [8], 13.3 µM in experiment [9] and 15.3 µM in [10].

As for `CCc1n(Cc2ccc3ccccc3c2)cc[n+]1Cc1ccc2ccccc2c1`, the GI50 in experiment [1] is 1.42 µM; in experiment [2], 0.404 µM; in experiment [3], 1.21 µM; in experiment [4] it was 0.384 µM; in [5], 1.08 µM; in [6] it was 19.2 µM. In addition, the GI50 in experiment [7] is 0.964 µM; in experiment [8] it was 0.425 µM; in [9] it was 1.65 µM; in experiment [10], 0.578 µM. Moreover, the TGI in experiment [1] came out at 3.65 µM; in [2] it was 2.27 µM; in experiment [3], 2.96 µM; in [4], 1.8 µM; in [5], 3.82 µM; in experiment [6], 62.4 µM. The TGI was found to be 2.55 µM in experiment [7], 4.7 µM in [8], 3.32 µM in [9] and 2.2 µM in experiment [10].

Regarding `O=[N+]([O-])c1cc2c(ccc3ccccc32)o1`, the GI50 is 1.31 µM in experiment [1]; 0.376 µM in experiment [2]; 0.173 µM in experiment [3]; 0.212 µM in [4]; 1.27 µM in [5]; 0.635 µM in [6]. In addition, the GI50 was 0.404 µM in experiment [7], 1.57 µM in experiment [8], 1.82 µM in experiment [9] and 0.835 µM in experiment [10]. For the same compound, the TGI is 4.92 µM in [1]; 9.01 µM in experiment [2]; 0.472 µM in [3]; 3.01 µM in [4]; 4.22 µM in experiment [5]; 5.96 µM in [6]. In addition, the TGI was 5.91 µM in [7], 31.9 µM in experiment [8], 7.43 µM in experiment [9] and 5.62 µM in experiment [10].

For `CCOC(=O)c1nc2sc(Cl)cn2c1/C=N/N=C(N)N`, the GI50 in [1] was 19.1 µM; in experiment [2], 17 µM; in [3], 18.8 µM; in [4], 27.5 µM; in experiment [5], 26.3 µM; in experiment [6], 39 µM. Moreover, the GI50 in [7] is 14.7 µM; in experiment [8] it was 30.6 µM; in experiment [9], 22.2 µM; in experiment [10], 23.6 µM. Besides, the TGI is 40.4 µM in experiment [1]; 53.6 µM in experiment [2]; 45.6 µM in [3]; above 58.7 µM in experiment [4]; above 55.1 µM in [5]; above 83.4 µM in experiment [6]. Also, the TGI in [7] was 43.8 µM; in [8], above 74 µM; in [9] it was 47.6 µM; in experiment [10], above 53.9 µM.

As for `COc1cccc(C2=C(c3cn(C)c4c(C)cccc34)C(=O)NC2=O)c1`, the GI50 in experiment [1] is above 25 µM; in experiment [2] it was 12.8 µM; in experiment [3] it was above 25 µM; in [4] it was 16.5 µM; in experiment [5], 19.4 µM; in experiment [6] it was above 21.4 µM. The GI50 in [7] is above 25 µM; in experiment [8] it was above 20.2 µM; in [9], above 25 µM; in experiment [10], 14.9 µM. Moreover, the TGI in experiment [1], in experiment [2], in experiment [3], in experiment [4], in experiment [5] and in experiment [6] was above 25 µM throughout. For the same compound, the TGI in experiment [7], in [8], in [9] and in experiment [10] was above 25 µM throughout.

Consider `N#C/C(=C\c1ccccn1)c1nc2ccccc2o1`, for which the GI50 in experiment [1] is above 100 µM; in experiment [2], 28.6 µM; in [3], 30.7 µM; in experiment [4], 16 µM; in [5] it was 39.3 µM; in experiment [6] it was 33.4 µM. The GI50 in experiment [7] was 17.5 µM; in [8], 14.5 µM; in experiment [9], 50.3 µM; in experiment [10], 21.5 µM. In addition, the concentration for total growth inhibition (TGI) in [1], in experiment [2], in experiment [3], in experiment [4], in experiment [5] and in experiment [6] was above 100 µM throughout. Besides, the concentration for total growth inhibition (TGI) is 37.1 µM in experiment [7], 34.3 µM in experiment [8], above 100 µM in experiment [9] and 49.8 µM in experiment [10].

With `Cc1nc2ccccc2c(/C=C/c2ccc(F)cc2)c1C(=O)/C=C/c1ccccc1`, the GI50 was 1.91 µM in experiment [1]; 2.44 µM in [2]; 2.87 µM in experiment [3]; 2.08 µM in experiment [4]; 1.85 µM in experiment [5]; 2.61 µM in experiment [6]. The GI50 in [7] was 2.9 µM; in experiment [8], 1.55 µM; in experiment [9], 4.05 µM; in [10] it was 1.74 µM. Also, the TGI in [1] is 4.27 µM; in experiment [2] it was 8.24 µM; in experiment [3], 9.26 µM; in experiment [4], above 100 µM; in experiment [5] it was 4.16 µM; in experiment [6], 7.48 µM. Moreover, the total growth inhibition concentration (TGI) in experiment [7] was above 100 µM; in experiment [8], 9.87 µM; in experiment [9], above 100 µM; in [10], 3.18 µM.

In the case of `O=NN(CC(=O)NNc1ccccc1)CC(=O)NNc1ccccc1`, the GI50 in [1] is above 100 µM; in experiment [2], 0.579 µM; in [3] it was 3.8 µM; in experiment [4], 8.13 µM; in experiment [5] it was above 100 µM; in experiment [6], 14.2 µM. The GI50 in experiment [7] was 4.21 µM; in experiment [8], 6.1 µM; in experiment [9] it was above 100 µM; in experiment [10], above 100 µM. The TGI in [1], in experiment [2], in experiment [3], in experiment [4], in experiment [5] and in experiment [6] was above 100 µM each time. For the same compound, the TGI in experiment [7], in experiment [8], in experiment [9] and in experiment [10] was above 100 µM throughout.

As to `CCn1cnc(C[C@H](NC(=O)[C@@H](NC(=O)Nc2cc(C(F)(F)F)cc(C(F)(F)F)c2)C(C)(C)C)C(=O)OC)c1`, the GI50 in experiment [1], in experiment [2], in [3], in experiment [4], in experiment [5] and in experiment [6] was above 10 µM each time. Moreover, the GI50 in [7], in experiment [8], in experiment [9] and in [10] was above 10 µM each time. In addition, the TGI in experiment [1], in experiment [2], in experiment [3], in experiment [4], in experiment [5] and in experiment [6] was above 10 µM each time. The TGI in experiment [7], in experiment [8], in [9] and in experiment [10] was above 10 µM in each case.

As to `COc1ccc(/C(=N/O)c2cc(F)c(F)c(OC)c2F)cc1O`, the GI50 in experiment [1] was 0.502 µM; in experiment [2], 0.271 µM; in [3] it was 0.344 µM; in [4], 0.329 µM; in [5], 15.8 µM; in experiment [6] it was 0.309 µM. Besides, the GI50 is 0.435 µM in experiment [7], 0.53 µM in [8], 17.9 µM in [9] and 0.634 µM in experiment [10]. For the same compound, the TGI in [1] is above 100 µM; in [2], above 100 µM; in experiment [3], above 100 µM; in [4], above 100 µM; in experiment [5], above 100 µM; in [6], 19.1 µM. In addition, the TGI in experiment [7] is above 100 µM; in [8] it was 72.4 µM; in experiment [9], above 100 µM; in experiment [10], above 100 µM.

As for `COc1cc(/C=C/C(=O)c2cccc(-n3cc(-c4ccccc4)[nH]c3=O)c2)ccc1O`, the GI50 is 4.6 µM in experiment [1]; 2.23 µM in [2]; 3.57 µM in experiment [3]; 1.94 µM in experiment [4]; 6.35 µM in [5]; 3.5 µM in [6]. For the same compound, the GI50 in experiment [7] was 2.48 µM; in [8], 2.72 µM; in experiment [9], 9.52 µM; in [10] it was 2.5 µM. Also, the TGI in experiment [1] is 15.3 µM; in experiment [2], 9.29 µM; in experiment [3], 18 µM; in experiment [4] it was 6.65 µM; in experiment [5], 17.8 µM; in experiment [6], above 43 µM. Besides, the TGI in experiment [7] was 6.3 µM; in [8] it was 8.59 µM; in experiment [9], 31.2 µM; in [10], 7.9 µM.

Consider `O=C1c2c[n+](Cc3ccccc3)ccc2-c2nc3ccccc3c3ccnc1c23`, for which the GI50 in [1] was 0.0569 µM; in experiment [2], 0.733 µM; in experiment [3], 0.208 µM; in [4] it was 0.163 µM; in [5], 0.537 µM; in experiment [6], 7.3 µM. The GI50 in experiment [7] was 0.45 µM; in experiment [8], 0.648 µM; in [9] it was 0.818 µM; in experiment [10], 0.541 µM. Also, the TGI in experiment [1] was 0.817 µM; in experiment [2] it was 7.83 µM; in experiment [3], 0.969 µM; in experiment [4], 0.89 µM; in experiment [5] it was 3.07 µM; in [6], 33.3 µM. For the same compound, the total growth inhibition concentration (TGI) in experiment [7] amounted to 3.71 µM; in [8], 1.7 µM; in experiment [9], 2.8 µM; in experiment [10], 1.64 µM.

As for `CCN(CC)CCNc1ccc2nc(C)n3c4ccc(OC)cc4c(=O)c1c23`, the TGI was found to be 21.7 µM in [1]; 4.13 µM in experiment [2]; 24.1 µM in [3]; 6.57 µM in experiment [4]; 7.11 µM in experiment [5]; 15.1 µM in [6]. Moreover, the TGI in [7] worked out at 9.27 µM; in [8] it was 33.8 µM; in experiment [9], 4.75 µM; in experiment [10], 20.6 µM.

Turning to `O=C(Nc1cccc2[nH]c(C(F)(F)F)nc12)c1ccc(Br)cc1F`, the GI50 in [1] was 2.43 µM; in [2], 3.37 µM; in [3], 3.83 µM; in [4], 2.5 µM; in experiment [5] it was 2.97 µM; in experiment [6] it was 3.35 µM. In addition, the GI50 is 3.38 µM in [7], 2.26 µM in experiment [8] and 3.43 µM in [9]. Moreover, the TGI stood at 8.88 µM in experiment [1]; 39.2 µM in experiment [2]; 14.5 µM in experiment [3]; 15 µM in experiment [4]; 12.8 µM in [5]; 12.2 µM in experiment [6]. For the same compound, the TGI in experiment [7] was determined as 13.2 µM; in [8], 7.49 µM; in experiment [9], 9.55 µM.

By TGI is commonly meant the concentration at which net growth stops. High values mean less potent growth arrest, low ones more potent growth arrest. For orientation: GI50 means the concentration that inhibits growth by half.
